{
  "source": "patent US20260042773A1",
  "about": "“NOVEL CAMPTOTHECIN ANALOGS AND IMMUNOCONJUGATES THEREOF” (priority 2022, published 2026)",
  "key": {"[1]": {"system": "SK-BR-3 cells", "test": "Cell viability (Cell Titer Glo 2.0) in SK-BR-3 cells", "type": "cell-based", "settings": "Homo sapiens, 120 hours at 37° C., Cell Titer Glo 2.0, normalized to non-treated controls", "experimental": "(§1) SU-DHL-1 and SK-BR-3 cells (ATCC, Manassas, VA, USA) were seeded into 384-well white-walled culture plates and allowed to adhere for 2-4 hours. Cells were then treated at least in duplicate by addition of 5-fold serially diluted test articles prepared at 2× final concentration and incubated at 37° C. for 120 hours. Cell viability following treatment was determined by Cell Titer Glo 2.0 Assay (Promega, Madison, WI, USA) and normalized to non-treated controls. Dose-response relationships were analyzed using GraphPad Prism (La Jolla, C A, USA), and IC50 values were derived from non-linear regression analyses using a 4-parameter logistic equation."}, "[2]": {"system": "SU-DHL-1 cells", "test": "Cell viability (Cell Titer Glo 2.0) in SU-DHL-1 cells", "type": "cell-based", "settings": "Homo sapiens, 120 hours at 37° C., Cell Titer Glo 2.0, normalized to non-treated controls", "experimental": "as §1"}},
  "data": [
    {"compound": "CC[C@@]1(O)C(=O)OCc2c1cc1n(c2=O)Cc2c-1nc1ccc(N)cc1c2NC", "note": "[Compound 19]", "values": [
      {"measurement": "IC50", "setting": "[1]", "value": "5 to 20", "unit": "nM"},
      {"measurement": "IC50", "setting": "[2]", "value": "> 20", "unit": "nM"}
    ]},
    {"compound": "CC[C@@]1(O)C(=O)OCc2c1cc1n(c2=O)Cc2c-1nc1ccc(N)cc1c2N1CCOCC1", "note": "[Compound 5]", "values": [
      {"measurement": "IC50", "setting": "[1]", "value": "< 5", "unit": "nM"},
      {"measurement": "IC50", "setting": "[2]", "value": "< 5", "unit": "nM"}
    ]},
    {"compound": "CC[C@@]1(O)C(=O)OCc2c1cc1n(c2=O)Cc2c-1nc1ccc(N)cc1c2N1CCC1", "note": "[Compound 8]", "values": [
      {"measurement": "IC50", "setting": "[1]", "value": "5 to 20", "unit": "nM"},
      {"measurement": "IC50", "setting": "[2]", "value": "5 to 20", "unit": "nM"}
    ]},
    {"compound": "CC[C@@]1(O)C(=O)OCc2c1cc1n(c2=O)Cc2c-1nc1ccc(N)cc1c2N(C)CCO", "note": "[Compound 20]", "values": [
      {"measurement": "IC50", "setting": "[1]", "value": "> 20", "unit": "nM"},
      {"measurement": "IC50", "setting": "[2]", "value": "> 20", "unit": "nM"}
    ]},
    {"compound": "CC[C@@]1(O)C(=O)OCc2c1cc1n(c2=O)Cc2c-1nc1ccc(N)cc1c2N1CC2(CCOCC2)C1", "note": "[Compound 9]", "values": [
      {"measurement": "IC50", "setting": "[1]", "value": "5 to 20", "unit": "nM"},
      {"measurement": "IC50", "setting": "[2]", "value": "< 5", "unit": "nM"}
    ]},
    {"compound": "CC[C@@]1(O)C(=O)OCc2c1cc1n(c2=O)Cc2c-1nc1ccc(N)cc1c2N", "note": "[Compound 21]", "values": [
      {"measurement": "IC50", "setting": "[1]", "value": "5 to 20", "unit": "nM"},
      {"measurement": "IC50", "setting": "[2]", "value": "> 20", "unit": "nM"}
    ]},
    {"compound": "CC[C@@]1(O)C(=O)OCc2c1cc1n(c2=O)Cc2c-1nc1ccc(N)cc1c2N(C)CCOC", "note": "[Compound 16]", "values": [
      {"measurement": "IC50", "setting": "[1]", "value": "5 to 20", "unit": "nM"},
      {"measurement": "IC50", "setting": "[2]", "value": "< 5", "unit": "nM"}
    ]},
    {"compound": "CC[C@@]1(O)C(=O)OCc2c1cc1n(c2=O)Cc2c-1nc1ccc(N)cc1c2CN1CCS(=O)(=O)CC1", "note": "[Compound 3]", "values": [
      {"measurement": "IC50", "setting": "[1]", "value": "> 20", "unit": "nM"},
      {"measurement": "IC50", "setting": "[2]", "value": "> 20", "unit": "nM"}
    ]},
    {"compound": "CC[C@@]1(O)C(=O)OCc2c1cc1n(c2=O)Cc2c-1nc1ccc(N)cc1c2CO", "note": "[Compound 10]", "values": [
      {"measurement": "IC50", "setting": "[1]", "value": "5 to 20", "unit": "nM"},
      {"measurement": "IC50", "setting": "[2]", "value": "5 to 20", "unit": "nM"}
    ]},
    {"compound": "CC[C@@]1(O)C(=O)OCc2c1cc1n(c2=O)Cc2c-1nc1ccc(N)cc1c2CN1CCOCC1", "note": "[Compound 1]", "values": [
      {"measurement": "IC50", "setting": "[1]", "value": "5 to 20", "unit": "nM"},
      {"measurement": "IC50", "setting": "[2]", "value": "< 5", "unit": "nM"}
    ]},
    {"compound": "CC[C@@]1(O)C(=O)OCc2c1cc1n(c2=O)Cc2c-1nc1ccc(N)cc1c2N1CCCC1", "note": "[Compound 6]", "values": [
      {"measurement": "IC50", "setting": "[1]", "value": "5 to 20", "unit": "nM"},
      {"measurement": "IC50", "setting": "[2]", "value": "5 to 20", "unit": "nM"}
    ]},
    {"compound": "CC[C@@]1(O)C(=O)OCc2c1cc1n(c2=O)Cc2c-1nc1ccc(N)cc1c2N1C[C@H]2CC[C@@H](C1)O2", "note": "[Compound 18]", "values": [
      {"measurement": "IC50", "setting": "[1]", "value": "< 5", "unit": "nM"},
      {"measurement": "IC50", "setting": "[2]", "value": "< 5", "unit": "nM"}
    ]},
    {"compound": "CC[C@@]1(O)C(=O)OCc2c1cc1n(c2=O)Cc2c-1nc1ccc(N)cc1c2N(C)CCN(C)C", "note": "[Compound 17]", "values": [
      {"measurement": "IC50", "setting": "[1]", "value": "> 20", "unit": "nM"},
      {"measurement": "IC50", "setting": "[2]", "value": "> 20", "unit": "nM"}
    ]},
    {"compound": "CC[C@@]1(O)C(=O)OCc2c1cc1n(c2=O)Cc2c-1nc1ccc(N)cc1c2COC", "note": "[Compound 4]", "values": [
      {"measurement": "IC50", "setting": "[1]", "value": "< 5", "unit": "nM"},
      {"measurement": "IC50", "setting": "[2]", "value": "< 5", "unit": "nM"}
    ]},
    {"compound": "CC[C@@]1(O)C(=O)OCc2c1cc1n(c2=O)Cc2c-1nc1ccc(N)cc1c2N1CCN(S(C)(=O)=O)CC1", "note": "[Compound 15]", "values": [
      {"measurement": "IC50", "setting": "[1]", "value": "> 20", "unit": "nM"},
      {"measurement": "IC50", "setting": "[2]", "value": "5 to 20", "unit": "nM"}
    ]},
    {"compound": "CC[C@@]1(O)C(=O)OCc2c1cc1n(c2=O)Cc2c-1nc1ccc(N)cc1c2N1CC2(CCOC2)C1", "note": "[Compound 11]", "values": [
      {"measurement": "IC50", "setting": "[1]", "value": "< 5", "unit": "nM"},
      {"measurement": "IC50", "setting": "[2]", "value": "< 5", "unit": "nM"}
    ]},
    {"compound": "CC[C@@]1(O)C(=O)OCc2c1cc1n(c2=O)Cc2c-1nc1ccc(N)cc1c2N1CCSCC1", "note": "[Compound 23]", "values": [
      {"measurement": "IC50", "setting": "[1]", "value": "< 5", "unit": "nM"},
      {"measurement": "IC50", "setting": "[2]", "value": "< 5", "unit": "nM"}
    ]},
    {"compound": "CC[C@@]1(O)C(=O)OCc2c1cc1n(c2=O)Cc2c-1nc1ccc(N)cc1c2N(C)C", "note": "[Compound 14]", "values": [
      {"measurement": "IC50", "setting": "[1]", "value": "5 to 20", "unit": "nM"},
      {"measurement": "IC50", "setting": "[2]", "value": "5 to 20", "unit": "nM"}
    ]},
    {"compound": "CC[C@@]1(O)C(=O)OCc2c1cc1n(c2=O)Cc2c-1nc1ccc(N)cc1c2N1CCCCC1", "note": "[Compound 12]", "values": [
      {"measurement": "IC50", "setting": "[1]", "value": "< 5", "unit": "nM"},
      {"measurement": "IC50", "setting": "[2]", "value": "< 5", "unit": "nM"}
    ]},
    {"compound": "CC[C@@]1(O)C(=O)OCc2c1cc1n(c2=O)Cc2c-1nc1ccc(N)cc1c2N1CC2(COC2)C1", "note": "[Compound 7]", "values": [
      {"measurement": "IC50", "setting": "[1]", "value": "5 to 20", "unit": "nM"},
      {"measurement": "IC50", "setting": "[2]", "value": "5 to 20", "unit": "nM"}
    ]},
    {"compound": "CC[C@@]1(O)C(=O)OCc2c1cc1n(c2=O)Cc2c-1nc1ccc(N)cc1c2CN1CCN(C)CC1", "note": "[Compound 2]", "values": [
      {"measurement": "IC50", "setting": "[1]", "value": "> 20", "unit": "nM"},
      {"measurement": "IC50", "setting": "[2]", "value": "5 to 20", "unit": "nM"}
    ]}
  ]
}
